Assay results from patent US20050182020A1, “Ceramide de novo synthesis-based therapeutic and prophylactic methods, and related articles of manufacture” (priority 2003, published 2005).

Experiments:
[1] = system: HSN1 cells (4561); test: Cholesterol / cholesterylester synthesis from 3H-mevalonate in HSN1 cells; type: cell-based, human
Experimental: (§1) FIG. 12. Increased free cholesterol synthesis in HSN cells. In order to investigate whether increased SRE-mediated gene transcription also results in increased cholesterol synthesis cells were incubated with radioactive mevalonate, a precursor which represents a committed step in cholesterol synthesis (see FIG. 11). Control and HSN1 cells were incubated for 7 h and 18 h in the presence of trace amounts of ^3H-mevalonate. Lipids were extracted and separated by thin […] chromatography (TLC). Radioactive counts in the cholesterol fraction were analyzed by liquid scintillation counting.
FIG. 14. Oleic acid increases HSN 4561 synthesis of high levels of free cholesterol but not cholesteryl ester. Cells were incubated for 4 h with ^3H-mevalonate and grown in the presence or absence of 0.3 mM oleic acid.
(§2) FIG. 16. Incubation with mevastatin decreases free cholesterol synthesis in HSN cells as well as in controls. Cells were treated for 16 h in the presence of ^3H-mevalonate to assess cholesterol de novo synthesis and several inhibitors of either cholesterol or ceramide synthesis (Mevastatin=Statin), C6 ceramide (previously shown by us to decreased SREBP levels and SRE-mediated gene transcription), cycloserine (inhibitor of serine-palmiltoyl transferase), cholesterol (classical inhibitor of de novo synthesis by negative feedback).

[2] = system: control lymphoblasts (HSN 4513); test: SRE-promoter reporter (adenovirus transfection) in control lymphoblasts; type: cell-based, human; details: oleic acid, 7 h
Experimental: (§3) FIG. 10. Increased SRE-mediated gene transcription in HSN1 cells (HSN 4561). Cells were transfected with an SRE-element containing promoter-reporter gene. This construct is identical to the promoter-reporter gene used in all previous studies. In order to achieve transfection in lymphoblasts, this promoter construct was subcloned into an adenovirus vector. Cells (control lymphoblasts and HSN1 lymphoblasts) were transfected for 3 h with this adenovirus vector and left in growth medium overnight. Medium was then switched to experimental medium containing 1% fatty acid free BSA (control conditions) or cholesterol/25-OH cholesterol (10 ug/ml/1 ug/ml) or oleic acid. After 7 h the luciferase activity which reflects binding of SREBP to the SRE-promoter element was measured. Because adenovirus mediated transfections are transient transfections the necessity for a transfection control arises. The adenovirus vector contains a β-gal control gene that is not regulated by experimental conditions and serves as a transfection control (standard practice).

[3] = system: HSN1 lymphoblasts (HSN 4561); test: SRE-promoter reporter (adenovirus transfection) in HSN1 lymphoblasts; type: cell-based, human; details: 7 h
Experimental: as §3

[4] = system: SRE-mediated gene transcription; test: SRE-promoter luciferase reporter gene assay in LY-B cells (CHO cells mutated in LCB1 subunit of serine-palmitoyl transferase); type: cell-based, Chinese hamster; details: cholesterol 10 μg/ml and 25-OH cholesterol 1 μg/ml, 16 h
Experimental: (§4) FIG. 5. LY-B cells fail to recover SRE-mediated gene transcription in cholesterol depletion but recover SRE-mediated gene transcription in the presence of DMS. […] Both cell lines have been transfected to stably express an SRE-promoter construct linked to the luciferase reporter gene. On day 2, cells were incubated for 16 h with 1% BSA (control) or in the presence of cholesterol (10 μg/ml) and 25-OH cholesterol (1 μg/ml) to decrease SRE-mediated gene transcription. Then, incubation medium was switched to 1% BSA or DMS (5 μM) for 6 h. After cell lysis, luciferase activity was analyzed, expressed as a ratio of protein content. Data represent the average (±S.D.) of at least 4 different experiments, each performed in triplicate.
Enzyme assays: Cells to be analyzed for luciferase activity were lyzed in lysis buffer A containing 0.1% Triton X-100, 50 mM Hepes, 10 mM MgSO4, pH 7.7. Cells were scraped, collected, vortexed and briefly centrifuged to pellet cell debris. An aliquot was used to measure luciferase activities in a luminometer (Berthold LB 9501, Wallac Inc., Gaithersburg, Md.) with a luciferin reagent from Promega (Madison, Wis.). Luciferase activity in relative light units (RLU) was divided by protein content (mg/ml) for each extract. […]

[5] = system: Niemann Pick Disease Type A fibroblasts; test: Ceramide de novo synthesis (3H-serine) in NPA fibroblasts; type: cell-based; details: overnight incubation with agent, vs 1% BSA
Experimental: FIG. 19. Ceramide synthesis is increased in NPA fibroblasts. Fibroblasts from different control individuals and from two different cell lines derived from Niemann Pick Disease Type A were incubated for 4 h in the presence of ^3H-serine to measure de novo ceramide synthesis after having been incubated overnight in either control medium (1% BSA) or in the presence of cholesterol or C8-Ceramide. Lipid extraction and separation were carried out.

[6] = system: NPA fibroblasts; test: SRE-promoter reporter (adenoviral transfection) in NPA fibroblasts; type: cell-based; details: addition of cholesterol; reversible on switch to BSA
Experimental: FIG. 20. SRE-mediated gene transcription is increased in NPA fibroblasts. The hypothesis was evaluated that increased ceramide de novo synthesis affects SREBP and SRE-mediated gene transcription in Niemann Pick Type A cells. Cells were transfected with an SRE-promoter construct (using adenoviral transfection as above in HSN cells). […] Addition of cholesterol decreases SRE-mediated gene transcription and this process is also reversible.

[7] = system: SRE-mediated gene transcription; test: SRE-promoter luciferase reporter gene assay in stably transfected CHO cells; type: cell-based, Chinese hamster; details: for SRE-mediated gene transcription (luciferase RLU/protein): myriocin 1 μM, cycloserine 500 mM, fumonisin B1 10 μM, PPMP 20 μM, NB-DNJ 40 μM, cholesterol/25-OH cholesterol 10/1 μg/ml, vs 1% BSA
Experimental: FIG. 3. Inhibition of ceramide synthesis and SRE-mediated gene transcription. (A) Decreased ceramide synthesis correlates with decreased levels of SRE-mediated gene transcription and mSREBP. […] After cell lysis, luciferase activity was analyzed, and expressed as a ratio of protein content. Data represent the average (±S.D.) of at least 4 different experiments, each performed in triplicate. […] CHO cells stably transfected with an SRE-promoter construct linked to the luciferase reporter gene were incubated for 8 h in the presence of control conditions (1% BSA) or increasing levels of myriocin (0.25-1 μM). After cell lysis, luciferase activity was analyzed, expressed as a ratio of protein content. Data represent the average (±S.D.) of at least 3 different experiments, each performed in triplicate.
FIG. 4. Increased ceramide synthesis and SRE-mediated gene transcription. (A) Increased ceramide de novo synthesis correlates with increased SRE-mediated gene transcription. On day 1, CHO cells stably transfected with an SRE-promoter construct linked to the luciferase reporter gene were plated at 80% confluency. […] Cells were harvested, lysed and analyzed for luciferase activity (measured in relative light units, RLU) and protein content. Data are expressed as percentage of control and represent the average (±S.D.) of three different experiments, each performed in triplicate. Inset: Western blot analysis: On day 1, CHO cells were plated in regular growth medium. On day 2, cells were incubated for 8 h with control medium (1% BSA) or DMS (5 μM). Whole cell extracts (30 μg protein) were loaded on a 4-14% continuous gradient SDS-PAGE gel. P and M denote the precursor (125 kd) and mature (68 kd) form of SREBP-1 in a representative experiment. (B) DMS increases ceramide de novo synthesis. CHO cells were treated for 3.5 h either with control conditions (1% BSA) or DMS (2.5-5 μM). […] Data are expressed as dpm/protein and represent a typical experiment.
as §4
Cell culture and stable transfections: Cells were grown in F12-nutrient mixture medium containing 10% fetal bovine serum (FBS), 1% glutamine (v/v), 1% penicillin/streptomycin (v/v), and 10% fetal bovine serum (v/v) at 37° C. in humidified CO2 (5%). To obtain stable transfectants, cells were plated in 12-well plates at 50% confluency and transfected for 5 h in the presence of serum-free Dulbecco's modified Eagle's medium (DMEM) with pSyn SRE (1 μg/well) and pWLNeo (0.25 μg/well) using Lipofectamin (1.5 μl/well). Cells were then incubated for 2 days in growth medium. On day three, neomycin-containing medium (400 μg/ml) was added. Selection for neomycin resistant colonies was continued for three weeks. Pooled clones were analyzed for luciferase expression. Experiments were performed with pooled clones as well as with cells derived from a single clone. Cells were grown in the presence of 400 μg/ml neomycin. For experimental use, cells were plated in the absence of neomycin at least 24 h ahead in regular growth medium.
Enzyme assays: Cells to be analyzed for luciferase activity were lyzed in lysis buffer A containing 0.1% Triton X-100, 50 mM Hepes, 10 mM MgSO4, pH 7.7. Cells were scraped, collected, vortexed and briefly centrifuged to pellet cell debris. […]

[8] = rats fed toxic levels, 20 week study (ref. 8); cited from earlier work
[9] = several animal studies; cited from earlier work
[10] = system: control cells (4513); test: Cholesterol synthesis from 3H-mevalonate in control lymphoblasts; type: cell-based, human; details: 16 h
Experimental: as §1, §2

[11] = system: HMG-CoA synthase mRNA; test: Northern blot of HMG-CoA synthase mRNA in CHO cells; type: cell-based, Chinese hamster; details: myriocin 1 μM, 16 h
[12] = system: cellular sphingomyelin levels; test: Cellular sphingomyelin levels (TLC, phosphorus); type: cell-based; details: within 24 h; data not shown
Source text: An aliquot was used for luciferase and protein determination. […] Lipids were then dried under N2. […] Absolute cpm values range between 400 and 800 cpm. […] In brief, lipids were extracted as above. Lipid extracts were run on TLC.
What is the role of cellular sphingomyelin levels on SRE-mediated gene transcription? […] LY-B cells have decreased sphingomyelin levels. Yet, SRE-mediated gene transcription is decreased in LY-B cells as well as in myriocin treated cells.

[13] = system: SREBP; test: Fluorescently labeled SREBP in cell culture after addition of DAG; type: cell-based; details: preliminary data in cell culture
Experimental: Data: Propanolol ([…]) inhibits SRE-mediated gene transcription to 40% (+3%) within 30 min. Resvaratrol ([…]) inhibits SRE-mediated gene transcription to 7% (±16%) within 4 h.
Preliminary data: Inhibition of PAP by propanolol or inhibition of PKD by resvaratrol both decrease SRE-mediated gene transcription. Addition of a DAG analogue that is exogenously added and thus distributes to membranes other than the Golgi results in reorientation of fluorescently labeled mature SREBP.

Compound: CCCCCCCC/C=C\CCCCCCCC(=O)O [Oleic acid]
- synthesis of cholesterol from 3H-mevalonate ([1]; HSN 4561, 0.3 mM oleic acid, 4 h): stimulates
- SRE-mediated gene transcription (luciferase/β-gal) in controls [2]: does not decrease
- SRE-mediated gene transcription (luciferase/β-gal) in HSN 1 (4561) ([3]; oleic acid): does not decrease

Compound: CC(C)CCC[C@@H](C)[C@H]1CC[C@H]2[C@@H]3CC=C4C[C@@H](O)CC[C@]4(C)[C@H]3CC[C@]12C [cholesterol]
- decrease of SRE-mediated gene transcription in LY-B cells compared to control cells [4]: significantly stronger
- sensitivity of cholesterol de novo synthesis in HSN1 cells (4561) relative to control cells ([1]; 16 h, 3H-mevalonate): more sensitive
- ceramide de novo synthesis (3H-serine, 4 h) [5]: does not significantly decrease
- SRE-mediated gene transcription [6]: decreases
- SRE-mediated gene transcription (luciferase/β-gal) in HSN 1 (4561) ([3]; cholesterol/25-OH cholesterol 10/1 ug/ml): very efficient in decreasing

Compound: CCCC[C@@H](C)[C@@H](OC(=O)C[C@@H](CC(=O)O)C(=O)O)[C@H](C[C@@H](C)C[C@H](O)CCCC[C@@H](O)C[C@H](O)[C@H](C)N)OC(=O)C[C@@H](CC(=O)O)C(=O)O [fumonisin B1]
- SRE-mediated gene transcription (luciferase RLU/protein) ([7]; 8 h): significantly reduced
- plasma cholesterol levels [8]: significantly decreased
- hepatotoxicity [9]: hepatotoxicity

Compound: CC[C@H](C)C(=O)O[C@H]1CCC=C2C=C[C@H](C)[C@H](CC[C@@H]3C[C@@H](O)CC(=O)O3)[C@H]21 [mevastatin]
- free cholesterol synthesis in HSN cells ([1]; 16 h, 3H-mevalonate): decreases
- free cholesterol synthesis in controls [10]: decreases

Compound: CCCCCCC(=O)CCCCCC/C=C/C[C@@H](O)[C@H](O)[C@@](N)(CO)C(=O)O [myriocin]
- SRE-mediated gene transcription (luciferase RLU/protein) ([7]; 8 h): significantly reduced
- expression of another control β-gal reporter gene ([7]; data not shown): did not decrease
- SRE-mediated gene transcription, dose dependence ([7]; myriocin 0.25-1 μM, 8 h): dose-dependently decreases
- HMG-CoA synthase mRNA levels relative to control [11]: half
- cellular sphingomyelin levels [12]: does not change

Compound: diacylglycerol [DAG]
- effect on fluorescently labeled SREBP [13]: attracts fluorescently labeled SREBP
